Details of data set [1]: method as in PMID 26424148. As to conditions: cited from earlier work.
For data set [2], the system named is P. falciparum. Further details: method as in PMID 26424148. The conditions noted are these: read-out: IC50, inhibition of P. falciparum growth; cited from earlier work.
For data set [3], the system named is P. falciparum. As to conditions: read-out: IC50 against P. falciparum; cited from earlier work.
Details of data set [4]: method as in PMID 28061347. As to conditions: metal-chelating activity; cited from earlier work.
Data set [5] deals with P. falciparum (K1 strain). The data set is described as follows: Drug sensitivity test (SYBR Green I), P. falciparum K1 strain. It is filed as cell-based, Plasmodium falciparum.
The subject of a further data set is normal cell line. The conditions noted are these: read-out: IC50, normal cell line; cited from earlier work.
Details of data set [6]: method as in PMID 32208614. The conditions noted are these: cited from earlier work.
Data set [7] is described as follows: Partition coefficient (Po/w), 1-octanol/water system. The conditions noted are these: mean ± SD of three repetitions.
The conditions of data set [8]: cited from earlier work.
In data set [9] the test system is P. falciparum. Further details: method as in PMID 23266185. As to conditions: read-out: IC50 against P. falciparum; cited from earlier work.
Data set [10] deals with labile iron pools in P. falciparum-infected red blood cells (PRBCs). The data set is described as follows: Labile iron pool (LIP) in P. falciparum-infected RBC, calcein quenching, flow cytometry. It is filed as cell-based, Plasmodium falciparum. The conditions noted are these: for effect on MFI values of PRBCs (LIP content): 25–200 µM, calcein fluorescence, higher MFI = less LIP.

Data set [11] deals with P. falciparum (3D7 strain). Description: Drug sensitivity test (SYBR Green I), P. falciparum 3D7 strain. It is filed as cell-based, Plasmodium falciparum. As to conditions: for IC50: read-out: Absolute IC50 Value, P. falciparum (3D7 Strain).
In a further data set the test system is healthy human PBMCs. Description: MTT toxicity study in peripheral blood mononuclear cells.
Details of data set [12]: method as in PMID 28061347. The conditions noted are these: read-out: IC50, antioxidant activity; cited from earlier work.
In another data set the test system is Aβ1–42. Details: method as in PMID 28061347. As to conditions: read-out: IC50, Cu2+/Fe3+-induced Aβ1–42 aggregation; cited from earlier work.
Where [13] appears, read: Plasmodium falciparum, K1, 48 h, read-out: Absolute IC50 Value, P. falciparum (K1 Strain), PYR-resistant K1, 48 h, monotherapy.
Where [14] appears, read: Plasmodium falciparum, 3D7, 48 h.

“Also recorded” adds a separate entry of the source. Read-outs that look alike come from different tables or passages of the source.

Turning to `CC(=O)NCCCCCCn1ccc(=O)c(O)c1C` [CM1, 1-(N-acetyl-6-aminohexyl)-3-hydroxy-2-methylpyridin-4-one], in data set [1], the Kpart was 0.53. The IC50 in the data set with P. falciparum [2] is 35.1 µM.
For `COCCOCCOCCOc1cccc(C2=N[C@@](C)(C(=O)O)CS2)c1O` [DADFT-PE, (S)3″-(HO)-desazadesferrithiocin-polyether], the IC50 in the data set with P. falciparum [3] was 6 µM.
As to `CC(=O)N(O)CCCCCNC(=O)CCC(=O)N(O)CCCCCNC(=O)CCC(=O)N(O)CCCCCN` [DFO, desferrioxamine], in the data set on P. falciparum [3], the IC50 was 30 µM.
For `Cc1c(O)c(=O)ccn1C` [DFP, 1,2-dimethyl-3-hydroxypyridin-4-one], the “pFe(III)” value in data set [4] is 20.6. Also, in [1], the Kpart was 0.17. Besides, the IC50 in data set [5] (setting [13]) is 42 µM; in the data set with normal cell line it was above 200 µM; in the data set on P. falciparum [3] it was 15 µM; in the data set with P. falciparum [9], 67 µM; in the data set with P. falciparum [2], 58.2 µM; in data set [11] (setting [14]) it was 47.7 µM. In addition, in data set [6], the “iron-mobilizing efficacy in rats” value was 11.8%. In addition, the “Po/w Values (partition coefficient)” value in data set [7] is 0.18 ± 0.06. The “log Po/w values for free ligands” value in data set [8] is recorded as −0.77. Moreover, in [8] (iron complex), the “log Po/w values for [Fe-L3]” value was −2.6. Moreover, in [10], the “effect on MFI values of PRBCs (LIP content)” value is “significantly increased the MFI values”.
For the compound `Cn1cc(O)c(=O)cc1C=Cc1cc(O)cc(O)c1` [DFP-RVT, 2-(3,5-dihydroxystyryl)-5-hydroxy-1-methylpyridin-4(1H)-one], the “pFe(III)” value in [4] is 19.6. Further, the “toxicity to PBMCs” value in the data set on healthy human PBMCs (200 µM, 48 h of incubation) was “slightly toxic”; in the data set on healthy human PBMCs (25–200 µM, 24 h of incubation), “not found to be toxic”. In addition, the “toxicity to PBMCs (words, summary)” value with healthy human PBMCs (concentrations up to 200 µM) is on record as “nontoxic to blood mononuclear cells”. For the same compound, the “anti-malarial activity of combined treatment with PYR, K1 strain” value in data set [5] (DFP-RVT (0–15 µM) with 75 µM PYR, 48 h) is on record as “significantly enhanced the anti-malarial activity; also recorded: additive effects”. Besides, the IC50 in data set [5] (setting [13]) was 13.4 µM; in data set [5] (read-out: Absolute IC50 Value, P. falciparum (K1 Strain), PYR-resistant K1, 48 h, monotherapy), 14 µM; in [12], 1730 nM; in the data set with Aβ1–42 it was 10.7 µM; in data set [11] (setting [14]) it was 16.8 µM. Moreover, in data set [10], the “effect on MFI values of PRBCs (LIP content)” value is given as “significantly increased the MFI values”. The “reduction in LIP levels in PRBCs compared with DFP (∆MFI)” value in data set [10] (equal concentrations) is reported as “more effective than conventional DFP at equal concentrations”. The “anti-malarial activity of combined treatment with PYR, 3D7 strain” value in data set [11] (DFP-RVT 5–15 µM with 25 nM PYR, 48 h) is on record as “significant level of enhancement of anti-malarial activity; also recorded: additive effects”.
As to `CCc1nc(N)nc(N)c1-c1ccc(Cl)cc1` [PYR, pyrimethamine], the IC50 in [5] (PYR-resistant K1, 48 h, monotherapy, read-out: Absolute IC50 Value, P. falciparum (K1 Strain)) was 106 µM; in [5] (Plasmodium falciparum, K1, 48 h, PYR-resistant K1, 48 h, monotherapy, read-out: Absolute IC50 Value, P. falciparum (K1 Strain)), 106 µM; in data set [11] (PYR-sensitive wild-type 3D7, 48 h, monotherapy), 0.05 µM; in [11] (Plasmodium falciparum, 3D7, 48 h, PYR-sensitive wild-type 3D7, 48 h, monotherapy), 0.046 µM.
As to `Oc1ccc(/C=C/c2cc(O)cc(O)c2)cc1` [RVT, 3,5,4′-trihydroxy-trans-stilbene], in the data set on Aβ1–42, the IC50 was 11.9 µM.
As to `Cc1c(C)c2c(c(C)c1O)CCC(C)(C(=O)O)O2` (stereo not shown) [Trolox], in data set [12], the IC50 was 3890 nM.
As for `COc1cc(/C=C/C(=O)CC(=O)/C=C/c2ccc(O)c(OC)c2)ccc1O` [curcumin], the IC50 in the data set on Aβ1–42 is 18.7 µM.

Source of the values: PMC8271877, “Identifying a Deferiprone–Resveratrol Hybrid as an Effective Lipophilic Anti-Plasmodial Agent” (Molecules, 2021).
